Laboratory results published in US11098055B2, “Ester ACC inhibitors and uses thereof” (Gilead Apollo, LLC, priority 2015, dated 2021).
In brackets after ≈: the same amount, converted by molar mass.

Tests used:
[1] = target: hACC2 (Homo sapiens, UniProt O00763); experiment: In vitro ACC2 inhibition assay (ADP-Glo), human ACC2; format: biochemical
How it was run: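 ADP-Glo luminescent ADP detection with 5 nM ACC2, 20 μM ATP, 20 μM acetyl-CoA, 12 mM NaHCO3, 2 mM DTT, 5% DMSO; compound (30 μM-0.00051 μM, 11 points) preincubated 15 min, reaction 60 min at room temperature. Percent inhibition against DMSO and positive controls; IC50 by four-parameter nonlinear fit.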

[2] = system: C. albicans ATCC 90028; experiment: Anti-Fungal (Candida) Activity Assay, broth microtiter MIC; format: cell-based; conditions: ATCC90028, 48 h, 3 replicates, MIC read at 48 h
How it was run: (§1)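 Broth microdilution per CLSI M27-A3 in RPMI 1640 + MOPS, at a final inoculum of 2.5×10^3 CFU/mL. Compound DMSO stocks were diluted in water to a 128 μg/mL working solution. MIC was read visually against the growth control at 48 h.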

[3] = system: C. parapsilosis ATCC 22019; experiment: as above; format: cell-based; conditions: Lodderomyces parapsilosis, ATCC22019, 48 h, 3 replicates, MIC read at 48 h
How it was run: as §1

[4] = system: C. krusei ATCC 6258; experiment: as above; format: cell-based, Candida krusei; conditions: Pichia kudriavzevii, ATCC6258, 48 h, 3 replicates, MIC read at 48 h
How it was run: as §1

Sequence of hACC2 (O00763 whole entry): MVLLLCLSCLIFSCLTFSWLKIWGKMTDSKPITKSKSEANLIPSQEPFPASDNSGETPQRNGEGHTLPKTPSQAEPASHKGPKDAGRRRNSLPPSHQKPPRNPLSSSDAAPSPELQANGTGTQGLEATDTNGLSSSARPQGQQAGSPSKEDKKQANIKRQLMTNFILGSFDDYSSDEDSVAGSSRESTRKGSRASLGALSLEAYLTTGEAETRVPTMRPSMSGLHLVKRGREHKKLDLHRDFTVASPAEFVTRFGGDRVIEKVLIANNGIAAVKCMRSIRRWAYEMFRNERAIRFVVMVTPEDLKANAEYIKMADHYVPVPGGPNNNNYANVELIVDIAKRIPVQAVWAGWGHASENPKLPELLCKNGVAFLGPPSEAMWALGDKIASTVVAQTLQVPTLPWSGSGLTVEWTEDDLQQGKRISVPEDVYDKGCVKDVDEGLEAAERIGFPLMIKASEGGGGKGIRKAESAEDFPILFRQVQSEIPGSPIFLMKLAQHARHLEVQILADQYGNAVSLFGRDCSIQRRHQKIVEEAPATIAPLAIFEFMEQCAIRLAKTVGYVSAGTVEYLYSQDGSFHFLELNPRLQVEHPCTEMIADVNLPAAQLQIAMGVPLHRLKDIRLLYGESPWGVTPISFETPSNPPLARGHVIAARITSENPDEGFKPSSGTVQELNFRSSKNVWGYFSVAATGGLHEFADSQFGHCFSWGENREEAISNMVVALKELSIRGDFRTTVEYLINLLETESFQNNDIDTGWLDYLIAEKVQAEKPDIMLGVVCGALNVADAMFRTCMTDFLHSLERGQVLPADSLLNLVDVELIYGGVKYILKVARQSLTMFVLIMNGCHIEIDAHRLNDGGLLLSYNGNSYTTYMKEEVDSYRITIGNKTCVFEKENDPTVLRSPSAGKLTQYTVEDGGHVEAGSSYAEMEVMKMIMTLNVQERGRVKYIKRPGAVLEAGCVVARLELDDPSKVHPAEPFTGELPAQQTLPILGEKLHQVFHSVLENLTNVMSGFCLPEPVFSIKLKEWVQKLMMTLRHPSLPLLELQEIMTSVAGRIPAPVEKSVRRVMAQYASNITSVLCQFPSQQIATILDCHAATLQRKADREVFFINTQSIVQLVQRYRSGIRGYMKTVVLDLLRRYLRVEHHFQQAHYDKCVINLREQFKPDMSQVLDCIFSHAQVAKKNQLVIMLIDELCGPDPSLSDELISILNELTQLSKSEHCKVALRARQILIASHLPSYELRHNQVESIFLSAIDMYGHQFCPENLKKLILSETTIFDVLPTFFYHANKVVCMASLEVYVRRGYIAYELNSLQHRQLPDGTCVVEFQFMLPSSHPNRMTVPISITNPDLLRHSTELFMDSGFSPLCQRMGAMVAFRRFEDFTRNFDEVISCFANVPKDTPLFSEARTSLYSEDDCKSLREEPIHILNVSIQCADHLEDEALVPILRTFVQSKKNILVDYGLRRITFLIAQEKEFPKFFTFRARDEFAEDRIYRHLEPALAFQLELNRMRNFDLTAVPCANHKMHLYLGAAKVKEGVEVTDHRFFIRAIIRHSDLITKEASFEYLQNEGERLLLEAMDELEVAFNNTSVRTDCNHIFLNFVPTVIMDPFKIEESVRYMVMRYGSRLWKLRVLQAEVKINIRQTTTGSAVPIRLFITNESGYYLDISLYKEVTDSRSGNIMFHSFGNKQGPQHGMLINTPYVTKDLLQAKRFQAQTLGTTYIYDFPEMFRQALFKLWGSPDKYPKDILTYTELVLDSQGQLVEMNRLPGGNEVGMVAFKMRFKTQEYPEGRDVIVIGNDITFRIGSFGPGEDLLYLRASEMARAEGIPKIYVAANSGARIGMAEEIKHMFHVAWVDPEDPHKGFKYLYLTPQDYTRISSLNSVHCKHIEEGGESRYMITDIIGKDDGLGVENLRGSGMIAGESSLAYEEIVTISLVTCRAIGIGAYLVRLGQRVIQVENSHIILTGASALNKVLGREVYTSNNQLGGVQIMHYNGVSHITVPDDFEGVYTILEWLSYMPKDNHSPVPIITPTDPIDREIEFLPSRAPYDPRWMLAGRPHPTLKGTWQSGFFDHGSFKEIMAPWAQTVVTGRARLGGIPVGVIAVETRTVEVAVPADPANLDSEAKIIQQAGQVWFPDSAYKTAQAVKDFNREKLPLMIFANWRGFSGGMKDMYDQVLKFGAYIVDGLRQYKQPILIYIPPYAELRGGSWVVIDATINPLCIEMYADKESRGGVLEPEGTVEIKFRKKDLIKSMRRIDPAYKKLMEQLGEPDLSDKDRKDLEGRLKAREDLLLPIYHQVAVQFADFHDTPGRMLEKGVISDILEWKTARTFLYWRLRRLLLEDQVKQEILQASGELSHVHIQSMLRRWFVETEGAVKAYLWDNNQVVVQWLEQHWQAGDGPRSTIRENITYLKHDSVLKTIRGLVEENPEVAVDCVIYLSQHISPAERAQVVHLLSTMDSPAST

SMILES	IC50 ([1]; Table 2b (additional results)) [nM]	MIC ([2]; Table 3b (additional results)) [µg/mL]	MIC ([3]; Table 3b (additional results)) [µg/mL]	MIC ([4]; Table 3b (additional results)) [µg/mL]	IC50 ([1]; Table 2a) [nM]	MIC ([2]; Table 3a) [µg/mL]	MIC ([3]; Table 3a) [µg/mL]	MIC ([4]; Table 3a) [µg/mL]
CCOC(=O)c1sc2c(c1C)c(=O)n([C@H](C)C(N)=O)c(=O)n2C[C@H](OCCC#N)c1cc(F)ccc1OC [Compound I-26, ethyl 3-((R)-1-amino-1-oxopropan-2-yl)-1-((R)-2-(2-cyanoethoxy)-2-(5-fluoro-2-methoxyphenyl)ethyl)-5-methyl-2,4-dioxo-1,2,3,4-tetrahydrothieno[2,3-d]pyrimidine-6-carboxylate]	3 to 10	2.1 to 4 (≈ 3.84 to 7.32 µM)	> 4.1	0.25 to 1 (≈ 0.457 to 1.83 µM)	–	–	–	–
CCOC(=O)c1sc2c(c1C)c(=O)n(C(C)(C)C(=O)NC(C)C)c(=O)n2C[C@H](OC(C)C)c1ccccc1OC [Compound I-9, (R)-ethyl 1-(2-isopropoxy-2-(2-methoxyphenyl)ethyl)-3-(1-(isopropylamino)-2-methyl-1-oxopropan-2-yl)-5-methyl-2,4-dioxo-1,2,3,4-tetrahydrothieno[2,3-d]pyrimidine-6-carboxylate]	10 to 40	1.1 to 2 (≈ 1.92 to 3.49 µM)	2.1 to 4 (≈ 3.66 to 6.97 µM)	2.1 to 4 (≈ 3.66 to 6.97 µM)	10 to 40	1.1 to 2 (≈ 1.92 to 3.49 µM)	2.1 to 4 (≈ 3.66 to 6.97 µM)	2.1 to 4 (≈ 3.66 to 6.97 µM)
CCOC(=O)c1sc2c(c1C)c(=O)n(C(C)(C)C(=O)NC(C)C)c(=O)n2C[C@H](OCCC#N)c1cc(F)ccc1OC [Compound I-15, (R)-ethyl 1-(2-(2-cyanoethoxy)-2-(5-fluoro-2-methoxy-phenyl)ethyl)-3-(1-(isopropylamino)-2-methyl-1-oxopropan-2-yl)-5-methyl-2,4-dioxo-1,2,3,4-tetrahydrothieno[2,3-d]pyrimidine-6-carboxylate]	3 to 10	0.25 to 1 (≈ 0.415 to 1.66 µM)	2.1 to 4 (≈ 3.48 to 6.64 µM)	0.25 to 1 (≈ 0.415 to 1.66 µM)	10 to 40	0.25 to 1 (≈ 0.415 to 1.66 µM)	0.25 to 1 (≈ 0.415 to 1.66 µM)	0.25 to 1 (≈ 0.415 to 1.66 µM)
CCOC(=O)c1sc2c(c1C)c(=O)n(C(C)(C)C(=O)N1CCCC1)c(=O)n2C[C@H](OC(C)C)c1ccccc1OC [Compound I-7, (R)-ethyl 1-(2-isopropoxy-2-(2-methoxyphenyl)ethyl)-5-methyl-3-(2-methyl-1-oxo-1-(pyrrolidin-1-yl)propan-2-yl)-2,4-dioxo-1,2,3,4-tetrahydrothieno[2,3-d]pyrimidine-6-carboxylate]	10 to 40	2.1 to 4 (≈ 3.59 to 6.83 µM)	2.1 to 4 (≈ 3.59 to 6.83 µM)	2.1 to 4 (≈ 3.59 to 6.83 µM)	10 to 40	2.1 to 4 (≈ 3.59 to 6.83 µM)	2.1 to 4 (≈ 3.59 to 6.83 µM)	2.1 to 4 (≈ 3.59 to 6.83 µM)
